Test results: patent US5929063A, “Mercapto and seleno derivatives as inhibitors of nitric oxide synthase” (priority 1995, dated 1999)
Entries after “also recorded” stand apart in the source; their conditions may differ. Where two headings read alike, the source gives them in different places.

How the values were obtained:
[1] = system: J774.2 macrophages; test: Nitrite production in immunostimulated J774.2 macrophages (E.coli LPS + murine gamma-interferon, 24 h); type: cell-based, mouse; details: for activity at 1 µM / activity at 3.16 µM / activity at 10 µM / activity at 31.6 µM / activity at 100 µM / activity at 1000 µM / EC50: Mus musculus; for activity at 1 µM / activity at 3.16 µM / activity at 10 µM / activity at 31.6 µM / activity at 100 µM / activity at 1000 µM: J774.2, 24 h, read-out: NITRITE (% OF CONTROL); for activity at 1000 µM: inhibitor concentration -3.000 log M (Table 3)
Procedure: This example illustrates the effect of selected mercapto and seleno derivatives on nitrite production in J774.2 immunostimulated macrophages. The J774.2 mouse macrophage cell line was obtained from the ATCC and was cultured in DMEM with 4×10^-3 M L-glutamine and 10% fetal calf serum. Cells were cultured in 96-well plates with 200 μl culture medium until they reached 60-80% confluence. To induce INOS, fresh culture medium containing E.coli LPS (10 μg/ml) and murine gamma-interferon (IFN)(50 U/ml) was added. Nitrite accumulation in the cell culture medium in the absence or presence of various inhibitors was measured after 24 hours. Nitrite production, an indicator of NO synthesis, was measured in the supernatant of J774.2 macrophages by the Greiss reaction as described in Example 1 above.
This Example illustrates the effect of selected seleno derivatives on endotoxin-induced nitrite formation in J774.2 macrophages. The mouse macrophage cell line J774.2 obtained from the ATCC was cultured in DMEM with 4×10^-3 M L-glutamine and 10% fetal calf serum. Cells were cultured in 96-well plates with 200 μl culture medium until they reached 60-80% confluence. To induce iNOS, fresh culture medium containing E.coli LPS (10 μg/ml) and murine gamma-interferon (IFN)(50 U/ml) were added. Nitrite accumulation in the cell culture medium in the absence or presence of various inhibitors was measured after 24 hours. There was no detectable nitrite production by the J774.2 macrophages in the absence of immunostimulation. However, in the presence of IFN and LPS, nitrite concentration of the medium increased to 17±2 μM in the absence of inhibitor.

[2] = target: T1, iNOS (Rattus norvegicus, UniProt Q06518); test: iNOS activity in lung homogenates from rats treated with bacterial endotoxin; type: biochemical; design: Lungs were obtained from rats which had been treated with bacterial endotoxin; from tissue; host or cells: lung homogenate from endotoxin-treated rats; details: for selectivity for iNOS: iNOS vs ecNOS EC50 values; for inhibition of iNOS activity, in words: lung homogenates, rats treated with endotoxin
Procedure: This Example illustrates the effect of selected mercapto and seleno derivatives on iNOS activity in lung homogenates prepared from rats treated with endotoxin. […] The homogenization buffer was composed of 50 mM tris-HCL, 0.1 mM EDTA, 0.1 mM EGTA and 1 mM phenylmethylsulfonyl chloride (pH 7.4). Cell suspensions were homogenized in the homogenization buffer on ice using a Tissue Tearor 985-370 homogenizer (BioSpec Products, Racine, Wis.).

[3] = target: T1, iNOS; test: Inhibition of iNOS activity in tissue homogenates (Table 2); type: biochemical; design: bNOS in tissue homogenates; from tissue; host or cells: tissue homogenate; details: for EC50: iNOS (Table 2)
[4] = target: T2, bNOS (Rattus norvegicus, UniProt P29476); test: bNOS activity in homogenates of whole rat brains; type: biochemical
T2 construct: bNOS activity was measured using similar methods in homogenates of whole rat brains; from tissue; host or cells: homogenate of whole rat brains

[5] = target: T3, ecNOS (Bos taurus, UniProt P29473); test: ecNOS activity from intimal scrapings of fresh bovine aortae (conversion of [3H]-L-arginine to [3H]-L-citrulline); type: biochemical
T3 construct: the intimal surface of fresh bovine aortae was scraped and homogenized; from tissue; host or cells: homogenate of intimal scrapings of fresh bovine aortae
Procedure: The intimal surface of fresh bovine aortae was scraped in the presence of homogenation buffer composed of 50 mM Tris-HCl, 0.1 mM ethylenediamine tetraacetic acid (EDTA) and 0.1 mM ethyleneglycol bis (beta-aminoethyl ether) (EGTA). Conversion of [^3 H]-L-arginine to [^3 H]-L-citrulline was measured in the homogenates as follows: cell homogenate (50 μl) was incubated in the presence of [^3 H]-L-arginine (10 μM, 5 kBq/tube), NADPH (2 mM), calmodulin (30 nM), tetrahydrobiopterin (5 μM) and calcium (2 mM) for 20 minutes at 37° C. in N-2-hydroxethyl piperazine-N-2-ethane sulfonic acid (HEPES) buffer (pH 7.5). Reactions were stopped by dilution with 1 ml of ice cold HEPES buffer (pH 5.5) containing EGTA (2 mM) and EDTA (2 mM). Reaction mixtures were applied to Dowex 50W (Na^+ form) columns and the eluted [^3 H]-L-citrulline activity was measured by scintillation counting. bNOS activity was measured using similar methods in homogenates of whole rat brains.
For a preparation rich in ecNOS, the intimal surface of fresh bovine aortae was scraped and homogenized. The homogenization buffer was composed of 50 mM tris-HCL, 0.1 mM EDTA, 0.1 mM EGTA and 1 mM phenylmethylsulfonyl chloride (pH 7.4). Cell suspensions were homogenized in the homogenization buffer on ice using a Tissue Tearor 985-370 homogenizer (BioSpec Products, Racine, Wis.). Conversion of [^3 H]-L-arginine to [^3 H]-L-citrulline was measured in the homogenates as described in Example 3 above.

[6] = system: J774 macrophages; test: Nitrite production by immunostimulated J774 macrophages (endotoxin 24 h, Griess); type: cell-based, mouse; details: for EC50: Mus musculus, J774, endotoxin 10 μg/ml, 24 h (Table 1), read-out: EC50 for the inhibition of nitrite production by stimulated J774 macrophages
Procedure: (§1) This example illustrates the effect of selected mercapto derivatives on endotoxin-induced nitrite formation in J774.2 macrophages and on IL-1 gamma-interferon induced nitrite formation in cultured rat arctic smooth muscle cells. J774 macrophage cell lines were obtained from the American Type Culture Collection (ATCC) and were grown using standard methods in Dulbecco's Modified Eagle Medium (DMEM) supplemented with 10% fetal bovine serum, glutamine, penicillin (10,000 U/l) and streptomycin (10,000 U/l). Rat aortic smooth muscle cells (RASM) from Wistar rats were isolated by enzymatic dissociation using standard methods. The cells were positively identified as smooth muscle by indirect immunofluorescent staining for a-actin, using mouse anti-α-actin antibody and anti-mouse IgG fluorescein isothiocyanate (FITC) conjugate. RASM cells were grown in T-75 tissue culture flasks in 50% F12 nutrient medium and 50% Dulbecco's Modified Eagle Medium supplemented with 10% fetal bovine serum, glutamine, penicillin (10,000 U/l) and streptomycin (10,000 U/l). Cells were grown in 96-well plates for measure of nitrite production and cell viability. J774 macrophages were treated with endotoxin (10 μg/ml) for 24 hours; smooth muscle cells were treated with IL-1 (100 U/ml) and gamma-interferon (50 U/ml) for 48 hours.
Concentration of nitrite, the degradation product of NO in the culture medium, was determined by mixing equal volumes of medium with the Griess reagent (1% sulfanilamide/0.1% naphthylethylenediamine dihydrochloride/2.5% H3 PO4). The mixture was incubated for 10 minutes at room temperature to form the chromophore, then optical densities (OD) were determined at 550 nm (OD550). NaNO2 was used as the standard. Spectrophotometric measurements were performed in a dual-wavelength spectrophotometer.

[7] = system: J774 macrophages; test: Mitochondrial respiration (MTT reduction), cell viability of immunostimulated J774 macrophages; type: cell-based, mouse
Procedure: as §1
Mitochondrial respiration, an indicator of cell viability, was assessed by the mitochondrial-dependent reduction of MTT [3-(4,5-dimethylthiazol-2-yl)-2,5-diphenyltetrazolium bromide] to formazan. Cells in 96-well plates were incubated (37° C.) with MTT (0.2 mg/ml for 60 minutes). Culture medium was removed by aspiration and the cells solubilized in dimethylsulfoxide (DMSO) (100 μl). The extent of reduction of MTT to formazan within cells was quantitated by measurement of OD550 using a microplate reader. The calibration curve for the reduction of MTT to formazan was prepared in DMSO. Formazan production by cells was expressed as a percentage of the values obtained from untreated cells.

[8] = inhibitor concentration -3.000 log M
[9] = inhibitor concentration -4.000 log M
[10] = inhibitor concentration -5.000 log M
[11] = inhibitor concentration -6.000 log M
[12] = inhibitor concentration -7.000 log M
[13] = ecNOS (Table 2), read-out: EC50 for inhibition of ecNOS activity in tissue homogenates
[14] = inhibitor concentration -4.000 log M (Table 3)
[15] = inhibitor concentration -5.000 log M (Table 3)
[16] = inhibitor concentration -6.000 log M (Table 3)

T2 sequence (P29476 whole entry): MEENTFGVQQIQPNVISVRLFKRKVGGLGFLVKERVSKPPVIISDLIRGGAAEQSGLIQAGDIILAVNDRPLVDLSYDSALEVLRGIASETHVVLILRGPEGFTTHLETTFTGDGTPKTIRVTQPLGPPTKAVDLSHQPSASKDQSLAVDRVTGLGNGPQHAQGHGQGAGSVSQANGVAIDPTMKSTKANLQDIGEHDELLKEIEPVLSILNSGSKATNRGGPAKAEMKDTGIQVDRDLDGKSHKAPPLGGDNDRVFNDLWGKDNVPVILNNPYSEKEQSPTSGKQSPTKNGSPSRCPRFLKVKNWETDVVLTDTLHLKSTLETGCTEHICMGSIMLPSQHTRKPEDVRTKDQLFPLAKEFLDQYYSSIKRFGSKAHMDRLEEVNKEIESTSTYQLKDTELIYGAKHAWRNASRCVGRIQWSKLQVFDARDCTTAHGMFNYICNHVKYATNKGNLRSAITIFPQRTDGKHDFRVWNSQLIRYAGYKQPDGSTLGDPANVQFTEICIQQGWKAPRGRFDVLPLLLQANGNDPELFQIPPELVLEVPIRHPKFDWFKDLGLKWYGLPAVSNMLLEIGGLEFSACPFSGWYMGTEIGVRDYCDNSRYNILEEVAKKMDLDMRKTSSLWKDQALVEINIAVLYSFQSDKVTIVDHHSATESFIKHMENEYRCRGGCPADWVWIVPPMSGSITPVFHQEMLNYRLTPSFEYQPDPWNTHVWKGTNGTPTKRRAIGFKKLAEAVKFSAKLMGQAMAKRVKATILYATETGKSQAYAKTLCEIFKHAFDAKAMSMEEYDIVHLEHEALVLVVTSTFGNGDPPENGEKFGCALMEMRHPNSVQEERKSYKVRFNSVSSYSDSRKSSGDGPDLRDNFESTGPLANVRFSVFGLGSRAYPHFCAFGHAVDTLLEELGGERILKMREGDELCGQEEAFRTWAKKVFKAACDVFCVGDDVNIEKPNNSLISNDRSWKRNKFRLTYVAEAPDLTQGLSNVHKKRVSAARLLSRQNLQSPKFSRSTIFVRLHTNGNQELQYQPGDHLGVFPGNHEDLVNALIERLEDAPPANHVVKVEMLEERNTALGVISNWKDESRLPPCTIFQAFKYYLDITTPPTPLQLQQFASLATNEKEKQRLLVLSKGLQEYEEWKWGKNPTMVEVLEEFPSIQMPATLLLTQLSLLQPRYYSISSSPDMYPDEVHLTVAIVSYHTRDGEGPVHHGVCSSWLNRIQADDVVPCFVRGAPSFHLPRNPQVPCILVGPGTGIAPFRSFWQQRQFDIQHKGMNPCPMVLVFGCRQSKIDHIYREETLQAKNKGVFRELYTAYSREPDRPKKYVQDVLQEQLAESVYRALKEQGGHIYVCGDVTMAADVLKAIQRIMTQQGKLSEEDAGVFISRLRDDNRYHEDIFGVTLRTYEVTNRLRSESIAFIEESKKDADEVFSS

## NC1=NCC[Se]1 [ASZ, 2-aminoselenazoline]
[1]; IFN and LPS
  inhibition of nitrite production, in words: dose-dependently inhibited nitrite production
[1]
  activity at 1 µM: 100%
  activity at 3.16 µM: 96%
  activity at 10 µM: 60%
  activity at 31.6 µM: 37%
  activity at 100 µM: 14%

## N=C(N)NCCSSCCNC(=N)N [GED, guanidinoethyldisulfide]
[2]; comparing Tables 4 and 5, read-out: EC50 on iNOS
  EC50: 200 µM
[2]
  selectivity for iNOS: relative selectivity of SEG and GED for iNOS
  inhibition of iNOS activity, in words: somewhat similar in their inhibitory effect on INOS activity
[2]; [8]
  iNOS ACTIVITY (%): 22.000%
[2]; [9]
  iNOS ACTIVITY (%): 57.000%
[2]; [10]
  iNOS ACTIVITY (%): 100.000%
[2]; [11]
  iNOS ACTIVITY (%): 100.000%
[2]; [12]
  iNOS ACTIVITY (%): 100.000%
[3]
  EC50: 200 µM
[4]
  EC50: 180 µM
[5]
  inhibition of ecNOS activity, in words: inhibited ecNOS activity less strongly than the L-NMA
[5]; [13]
  EC50: 630 µM
[1]; IFN and LPS
  inhibition of nitrite production, in words: dose-dependent inhibition of nitrite production
  potency relative to reference compound L-NMA: higher than the reference compound L-NMA
[1]
  activity at 1000 µM: 0%
[1]; [14]
  activity at 100 µM: 0%
[1]; [15]
  activity at 10 µM: 7%
[1]; [16]
  activity at 1 µM: 36%
[1]; J774.2, IFN and LPS, Example 9, read-out: EC50, inhibition of nitrite production
  EC50: 0.3 µM
[6]
  EC50: 1 µM

## N=C(NCCC[C@H](N)C(=O)O)N[N+](=O)[O-] [L-NA, N^G -Nitro-L-arginine, reference compound]
[3]
  EC50: 300 µM
[6]
  EC50: ~1000 µM

## N=C(N)NCCS [MEG, mercaptoethylguanidine]
[3]
  EC50: 11.5 µM
[4]
  EC50: 60 µM
[5]; [13]
  EC50: 110 µM
[7]; 1 mM
  cellular viability: a slight reduction in viability was observed
[7]; effective doses 1-100 μM
  cellular viability: did not decrease cellular viability
[6]
  EC50: 13 µM

## N=C(N)NCCCS [MPG, mercaptopropylguanidine]
[3]
  EC50: 7 µM
[4]
  EC50: 80 µM
[5]; [13]
  EC50: 4 µM
[7]; 1 mM
  cellular viability: a slight reduction in viability was observed
[7]; effective doses 1-100 μM
  cellular viability: did not decrease cellular viability
[6]
  EC50: 15 µM

## CCSCCNC(=N)N [S-ethyl-MEG]
[3]
  inhibition of iNOS activity, in words: relative potent inhibitors of iNOS activity
  EC50: 30 µM
[4]
  EC50: 460 µM
[5]
  inhibition of ecNOS activity, in words: less potent on ecNOS
[5]; [13]
  EC50: 850 µM
[6]
  EC50: 328 µM
[6]; immunostimulated J774 macrophages
  inhibition of nitrite production/accumulation, in words: inhibitors of nitrite accumulation

## CSCCNC(=N)N [S-methyl-MEG, S-methyl-mercaptoethylguanidine]
[3]
  EC50: 1.4 µM
[4]
  EC50: 8 µM
[5]; [13]
  EC50: 43 µM
[6]
  EC50: 80 µM

## N=C(N)NCC[SeH] [SEG, selenoethylguanidine]
[2]
  EC50: 10 µM
  selectivity for iNOS: relative selectivity of SEG and GED for iNOS
  inhibition of iNOS activity, in words: inhibits iNOS activity, more strongly
[2]; [8]
  iNOS ACTIVITY (%): 0.0000%
[2]; [9]
  iNOS ACTIVITY (%): 15.000%
[2]; [10]
  iNOS ACTIVITY (%): 56.000%
[2]; [11]
  iNOS ACTIVITY (%): 86.000%
[2]; [12]
  iNOS ACTIVITY (%): 100.000%
[5]
  EC50: 600 µM
  inhibition of ecNOS activity, in words: inhibited ecNOS activity less strongly than the L-NMA
[1]; IFN and LPS
  inhibition of nitrite production, in words: dose-dependent inhibition of nitrite production; also recorded: dose-dependently inhibited nitrite production
  potency relative to reference compound L-NMA: higher than the reference compound L-NMA
[1]
  activity at 1000 µM: 0%
[1]; [14]
  activity at 100 µM: 7%
[1]; inhibitor concentration -4 log M (Table 6)
  activity at 100 µM: 14%
[1]; inhibitor concentration -4.5 log M (Table 6)
  activity at 31.6 µM: 28%
[1]; [15]
  activity at 10 µM: 50%
[1]; inhibitor concentration -5 log M (Table 6)
  activity at 10 µM: 50%
[1]; inhibitor concentration -5.5 log M (Table 6)
  activity at 3.16 µM: 94%
[1]; [16]
  activity at 1 µM: 90%
[1]; inhibitor concentration -6 log M (Table 6)
  activity at 1 µM: 100%
[1]; J774.2, read-out: EC50, inhibition of nitrite production
  EC50: 10 µM

## N=C(N)NCCC[SeH] [SPG, selenopropylguanidine]
[1]; IFN and LPS
  inhibition of nitrite production, in words: dose-dependently inhibited nitrite production
[1]
  activity at 1 µM: 100%
  activity at 3.16 µM: 73%
  activity at 10 µM: 11%
  activity at 31.6 µM: 4%
  activity at 100 µM: 0%
